From patent US6300327A, “Compositions and methods for potentiation of neurotrophin activity” (The University of Southern California, priority 1997, dated 2001)
“Also recorded” adds a separate entry of the source.

Legend:
[1] = biological target: cGMP-dependent protein kinase; conditions: in vitro assay systems; cited from earlier work
[2] = tested on: chick dorsal root ganglia neurons (DRG); assay: Survival of dissociated chick DRG neurons (embryonic day 9); assay type: cell-based
Experimental: DRGs of embryonic day 9 chicks were dissected and dissociated using enzymatic and mechanical procedures as described in the literature [Rosenthal, A. et al., "Primary Structure and Biological Activity of a Novel Human Neurotrophic Factor," Neuron 4:767-773 (1990)]. 1800 neurons were plated per well in 96-well tissue culture plates pretreated with polyornithine (500 μg/ml) and laminin (10 μg/ml). Cells were incubated for 48 hrs with or without growth factors and the indicated concentrations of K-252b. Phase-bright cells with elaborated neurites 5× the diameter of the cell bodies were then counted.
Similar to the findings obtained in primary cultures of brain cholinergic neurons, low concentration of K-252b (50 nM) potentiated the survival promoting action of a maximally effective concentration of NT-3 (FIG. 3). Survival of dissociated chick DRG neurons in presence of rhNGF (100 ng/ml) or rhNT-3 (100 ng/ml) and K-252b is illustrated in FIG. 3; concentrations on the horizontal axis are for K-252b. The columns represent means +SEMs. […] High concentrations of K-252b (10 μM) inhibited the action of NGF on sensory neurons, as found for cholinergic neurons (FIG. 3).

[3] = tested on: epidermal growth factor and basic fibroblast growth factor receptors; assay: Receptor tyrosine phosphorylation induced by epidermal growth factor and basic fibroblast growth factor in PC12 cells; assay type: cell-based; conditions: K-252b
[4] = biological target: protein kinase C; conditions: in vitro assay systems; cited from earlier work
[5] = tested on: PC12 cells; assay: Neurite outgrowth of PC12 cells; assay type: cell-based; conditions: 48 hours
Experimental: PC12 cells were grown as described earlier [Kaplan et al., 1990, 1991a, b]. To assess effects on neurite outgrowth, cells were incubated for 48 hours with K-252b (50 nM) and NT-3 or NGF (50 ng/ml). Neurites were scored if they were a length of one cell body or more.
(§1) Experiments on PC12 cells confirmed observations made on primary neuron cultures. Treatment with K-252b stimulated NT-3 induced neurite outgrowth and trk tyrosine phosphorylation in PC12 cells while inhibiting NGF induced effects. PC12 cells were incubated for 48 hours with K-252b (50 nM) and NT-3 or NGF (50 ng/ml). FIG. 4A illustrates the % cells with neurites after 48 hours incubation. Neurites were scored if they were a length of one cell body or more. PC12 cells were subsequently lysed and immunoprecipitated with anti-trk serum. trk proteins were subjected to SDS-PAGE and analyzed by immunoblotting with anti-phosphotyrosine antibodies (FIG. 4B). Lane 1, NT-3 +K-252b; lane 2, NT-3; lane 3, NGF +K-252b; lane 4, NGF. For FIG. 4C, PC12 cells were incubated for 1 hour in K-252b (50 nM or 10 μM) and with NT-3 or NGF for 5 minutes prior to lysis; other methods were the same as described for FIG. 4B. Lane 1, NT-3+10 μM K-252b; lane 2, NT-3±50 nM K-252b; lane 3, NT-3; lane 4, NGF+10 μM K-252b; lane 5, NGF+50 nM K-252b; lane 6, NGF; lane 7, untreated control.

[6] = Cytotoxicity in vitro; assay type: cell-based
[7] = tested on: trk; assay: trk tyrosine phosphorylation in PC12 cells (immunoprecipitation, anti-phosphotyrosine immunoblot); assay type: cell-based
Experimental: (§2) To measure the status of trk tyrosine phosphorylation, PC12 cells were lysed and immunoprecipitated with anti-trk serum. The trk proteins were subjected to 7.5% SDS-PAGE and analyzed by immunoblotting with anti-phosphotyrosine antibodies as described in detail in the literature [Kaplan, D. R. et al., "PDGF beta receptor stimulates tyrosine phosphorylation of GAP and association of GAP with a signaling complex," Cell 61:125-133 (1990)]. Tyrosine phosphorylation of cellular proteins was assayed by probing Western blots of lysates of PC12 cells incubated with K-252b and NT-3 or NGF with anti-phosphotyrosine antibodies. Phospholipase C gammal was identified in these blots as described elsewhere [Vetter, M.L. et al., "Nerve growth factor rapidly stimulates tyrosine phosphorylation of phospholipase C-gammal by a kinase activity associated with the product of trk protooncogene," Proc. Natl Acad. Sci. USA 88:5650-5654 (1991)].
as §1

[8] = biological target: cAMP-dependent protein kinase; conditions: in vitro assay systems; cited from earlier work
[9] = tested on: trk; assay: Cell-free tyrosine phosphorylation of recombinant human trk expressed in Sf9 insect cells; assay type: biochemical; conditions: 10 μM K-252b
Experimental: Human trk and trkB were expressed in Sf9 insect cells transfected using a baculovirus system. The trk proteins were immunoprecipitated as described above and the precipitates were incubated with 20 μCi [gamma-^32 P]ATP, 10 mM MnCl2, 20 mM Tris, pH 7.4, for 5 min at 25° C. in the presence of increasing amounts of K-252b or control solution. Phosphorylated proteins were analyzed as described for FIG. 4B. The tyrosine kinase activity of the trk and trkB proteins was activated in the absence of ligand, a common observation for receptor tyrosine kinase produced in the baculovirus system. The trk and trkB proteins were 25% pure as assayed by SDS-PAGE.
K-252b interacts directly with the trk and trkB protein. Human trk and trkB were expressed in Sf9 insect cells transfected using a baculovirus system. trk proteins were immunoprecipitated and the precipitates were incubated with [gamma^32 P]ATP in the presence of increasing amounts of K-252b or control solution.

[10] = tested on: phospholipase C gamma-1; assay: Tyrosine phosphorylation of phospholipase C gamma-1 and other cellular proteins in PC12 cells; assay type: cell-based
Experimental: as §2

Q: What does the source list for `CC12OC(CC1(O)C(=O)O)n1c3ccccc3c3c4c(c5c6ccccc6n2c5c31)CNC4=O` (stereo not drawn) [K-252b]?
A: Ki [1]: 10 to 100 nM; effect on survival mediated by NGF or BDNF ([2]; 50 nM K-252b): failed to influence survival; number of neurons supported by combination with NT-3 ([2]; 50 nM K-252b + NT-3): identical to that supported by NGF alone; effect on survival promoting action of NT-3 ([2]; 50 nM K-252b, rhNT-3 100 ng/ml): potentiated; effect on action of NGF on sensory neurons ([2]; 10 μM K-252b, rhNGF 100 ng/ml): inhibited; effect on receptor responses induced by epidermal growth factor and basic fibroblast growth factor [3]: failed to influence; Ki [4]: 10 to 100 nM; reduction of NGF-induced neurite outgrowth ([5]; 50 nM K-252b + NGF 50 ng/ml): approximately three-fold; effect on NT-3 induced neurite outgrowth ([5]; 50 nM K-252b + NT-3 50 ng/ml, vs NT-3 alone): significantly more neurite outgrowth activity; cytotoxicity [6]: lacked cytotoxicity; also recorded: non-toxic; trk tyrosine phosphorylation with NT-3 ([7]; 50 nM K-252b + NT-3, 48 hours): clear increase; effect on NGF-induced trk phosphorylation ([7]; 10 μM K-252b, 1 hour, then NGF 5 minutes): partially inhibited; trk tyrosine phosphorylation with NT-3 ([7]; 1 hour K-252b followed by 5 minutes NT-3): greatly enhanced; trk tyrosine phosphorylation, inhibitor alone without NT-3 ([7]; K-252b alone): identical to untreated controls; Ki [8]: 10 to 100 nM; effect on trk tyrosine phosphorylation, cell-free system [9]: completely prevented; NT-3 mediated tyrosine phosphorylation of phospholipase C gamma-1 and other proteins ([10]; 50 nM K-252b + NT-3): enhanced; tyrosine phosphorylation of phospholipase C gamma-1 and other proteins in NGF treated cells ([10]; K-252b + NGF): inhibited
